According to patent US20090124539A1, “Methods of treating infection” (priority 2007, published 2009):
Converted amounts (≈) assume the structure as drawn.

Tests used:
Enterococcus faecalis [1] = test: MIC, broth microdilution (CLSI); format: cell-based
Protocol: (§1) The solvent for all of the compounds was deionized water (DIW), and all of the compounds dissolved in the solvent. The stock solutions were allowed to stand in DIW for one hour at room temperature prior to testing to allow time for auto-sterilization.
(§2) The test organisms were originally received from clinical sources, or from the American Type Culture Collection. When received, the organisms were sub-cultured onto an appropriate agar medium. Following incubation, colonies were harvested from these plates and cell suspensions prepared and frozen at −80° C. On the day prior to assay, a frozen vial of each culture was thawed and the contents were streaked for isolation onto either Tryptic Soy Agar (Becton Dickinson, Sparks, Md.) or Tryptic Soy Agar (Enhanced Hemolysis; Becton Dickinson) supplemented with 5% sheep blood for streptococci. The agar plates were incubated overnight at 35° C. Staphylococcus aureus ATCC 29213 and Enterococcus faecalis ATCC 29212 were included as quality control isolates in the assay.
(§3) The test medium for the broth microdilution testing was Mueller Hinton II broth (MHB II; BBL# 212322, Lot # 6024003, Becton Dickinson). The broth was prepared at 1.05× normal weight/volume to offset the 5% volume of the drug solution in the final test plates.
(§4) CLSI guidelines recommend that Mueller-Hinton II broth be adjusted to contain 50 mg/L of Ca^++ ions for proper daptomycin MIC results. Since Mueller-Hinton II broth has already been adjusted by the manufacturer to contain approximately 25 mg/L of Ca^++ ions, an additional 25 mg/L of Ca^++ ions was adjusted with 10 mg/mL of CaCl2.2H2O (Lot# 084K0215; Sigma-Aldrich) added at a rate of 0.1 mL/L of broth, for each desired increment of 1 mg/L. This supplemented Mueller-Hinton II broth was used only in wells containing daptomycin.
(§5) MIC values were determined using a broth microdilution method as recommended by the Clinical and Laboratory Standards Institute (Clinical and Laboratory Standards Institute^a. Methods for Dilution Antimicrobial Susceptibility Tests for Bacteria That Grow Aerobically; Approved Standard-Seventh Edition. Clinical and Laboratory Standards Institute document M7-A7 [ISBN 1-56238-587-9]. Clinical and Laboratory Standards Institute, 940 West Valley Road, Suite 1400, Wayne, Pa. 19087-1898 USA, 2006). Automated liquid handlers (Multidrop 384, Labsystems, Helsinki, Finland; Biomek 2000 and Multimek 96, Beckman Coulter, Fullerton Calif.) were used to conduct serial dilutions and make liquid transfers.
(§6) Wells of two standard 96-well microdilution plates (Falcon 3918; Becton Dickinson) were filled with 150 μL of […] using the Multidrop 384. These plates were used to prepare the drug “mother plates” that provided the serial drug dilutions for replicate “daughter plates”. The Biomek 2000 was used to transfer 150 μl of each stock solution from the wells of column 1 of a deep well plate to the corresponding wells in column 1 of the mother plate and to make eleven 2-fold serial dilutions in the mother plates. The wells of column 12 contained no drug and were the organism growth control wells. Each mother plate has the capacity to create a total of 12 daughter plates.
(§7) The daughter plates were loaded with 180 μL of one of the media described above using the Multidrop 384. The wells of the daughter plates ultimately contained 180 μL of MHB II, 10 μL of drug solution, and 10 μL of bacterial inoculum prepared in broth appropriate to the test organism (1.05×). The daughter plates were prepared on the Multimek 96 instrument, which transferred 10 μL of drug solution from each well of the mother plate to each corresponding well of each daughter plate in a single step. […]

[2] = system: Staphylococcus epidermidis; test: MIC, broth microdilution (CLSI); format: cell-based
Protocol: as §1, §2, §3, §4, §5, §6, §7

Enterococcus faecium = test: MIC, broth microdilution (CLSI); format: cell-based
Protocol: (§8) The stock solutions were allowed to stand in DIW for one hour at room temperature prior to testing to allow time for auto-sterilization.
as §2, §3, §4, §5, §6
(§9) The daughter plates were loaded with 180 μL of one of the media described above using the Multidrop 384. The wells of the daughter plates ultimately contained 180 μL of MHB II, 10 μL of drug solution, and 10 μL of bacterial inoculum prepared in broth appropriate to the test organism (1.05×). The daughter plates were prepared on the Multimek 96 instrument, which transferred 10 μL of drug solution from each well of the mother plate to each corresponding well of each daughter plate in a single step.

Staphylococcus aureus [3] = test: MIC, broth microdilution (CLSI); format: cell-based
Protocol: as §8, §2, §3, §4, §5, §6, §9

Streptococcus pneumoniae = test: MIC, broth microdilution (CLSI); format: cell-based
Protocol: as §1, §2, §3
For streptococci, lysed horse blood (Lot # H88621; Cleveland Scientific, Bath, Ohio) was added to the MHB II at a final concentration of 2%. […]
as §5, §6, §9
Standardized inoculum of each organism was prepared following Clinical and Laboratory Standards Institute (Clinical and Laboratory Standards Institute^b. Performance Standards for Antimicrobial Susceptibility Testing; Sixteenth Informational Supplement. CLSI document M100-S16 [ISBN 1-56238-588-7]. Clinical and Laboratory Standards Institute, 940 West Valley Road, Suite 1400, Wayne, Pa. 19087-1898 USA, 2006) methods. The inoculum for each organism was dispensed into sterile reservoirs divided by length (Beckman Coulter), and the Biomek 2000 was used to inoculate the plates. […]

Streptococcus pyogenes = test: MIC, broth microdilution (CLSI); format: cell-based
Protocol: as §1, §2, §3
For streptococci, lysed horse blood (Lot # H88621; Cleveland Scientific, Bath, Ohio) was added to the MHB II at a final concentration of 2%.
as §4, §5, §6, §7

Enterococcus faecalis [4] = conditions: quality control range for Enterococcus faecalis ATCC 29212 (# 101); cited from earlier work
Staphylococcus aureus [5] = conditions: quality control range for Staphylococcus aureus ATCC 29213 (# 100); cited from earlier work
Enterococci = test: MIC, broth microdilution, summary over Enterococci; format: cell-based; conditions: against Enterococci
Protocol: as §1
as §2, with “Staphylococcus aureus ATCC 29213 and Enterococcus faecalis ATCC 29212 were included as quality control isolates in the assay.” left out
as §5, with “Automated liquid handlers (Multidrop 384, Labsystems, Helsinki, Finland; Biomek 2000 and Multimek 96, Beckman Coulter, Fullerton Calif.) were used to conduct serial dilutions and make liquid transfers.” left out

staphylococci = test: MIC, broth microdilution, summary over staphylococci; format: cell-based; conditions: against staphylococci
Protocol: as §1
as §2, with “Staphylococcus aureus ATCC 29213 and Enterococcus faecalis ATCC 29212 were included as quality control isolates in the assay.” left out
as §5, with “Automated liquid handlers (Multidrop 384, Labsystems, Helsinki, Finland; Biomek 2000 and Multimek 96, Beckman Coulter, Fullerton Calif.) were used to conduct serial dilutions and make liquid transfers.” left out

[6] = Streptococcus pyogenes Micromyx # 942, macrolide^R

Compound: CN[C@H](CC(C)C)C(=O)N[C@H]1C(=O)N[C@@H](CC(N)=O)C(=O)N[C@H]2C(=O)N[C@H]3C(=O)N[C@H](C(=O)N[C@H](C(=O)O)c4cc(O)cc(O)c4-c4cc3ccc4O)[C@H](O)c3ccc(c(Cl)c3)Oc3cc2cc(c3O[C@@H]2O[C@H](CO)[C@@H](O)[C@H](O)[C@H]2O[C@H]2C[C@](C)(N)[C@H](O)[C@H](C)O2)Oc2ccc(cc2Cl)[C@H]1O [Vancomycin, vancomycin]
- MIC (Enterococcus faecalis [1]; Enterococcus faecalis, ATCC29212, Enterococcus faecalis Micromyx # 101, VSE, CLSI QC strain (ATCC 29212)): 4 µg/mL (≈ 2.76 µM)
- MIC (Enterococcus faecalis [1]; Enterococcus faecalis, Enterococcus faecalis Micromyx # 413, LZD^R from res. dev. or other): 2 µg/mL (≈ 1.38 µM)
- MIC (Enterococcus faecalis [1]; Enterococcus faecalis, Enterococcus faecalis Micromyx # 486, Van A): > 128 µg/mL
- MIC (Enterococcus faecalis [1]; Enterococcus faecalis, Enterococcus faecalis Micromyx # 1088, Van B): 128 µg/mL (≈ 88.3 µM)
- MIC ([2]; Staphylococcus epidermidis): 2 µg/mL (≈ 1.38 µM)
- MIC ([2]; Staphylococcus epidermidis, MRSE): 4 µg/mL (≈ 2.76 µM)
- MIC (Enterococcus faecium; Enterococcus faecium, Enterococcus faecium Micromyx # 750, Van^S): 1 µg/mL (≈ 0.69 µM)
- MIC (Enterococcus faecium; Enterococcus faecium, Enterococcus faecium Micromyx # 752, Van A): > 128 µg/mL
- MIC (Enterococcus faecium; Enterococcus faecium, Enterococcus faecium Micromyx # 1120, Van B): 32 µg/mL (≈ 22.1 µM)
- MIC (Enterococcus faecium; Enterococcus faecium, Enterococcus faecium Micromyx # 1721, DAP^R): > 128 µg/mL
- MIC (Staphylococcus aureus [3]; Staphylococcus aureus, ATCC 29213 / MSSA, Staphylococcus aureus Micromyx # 100, MSSA, CLSI QC strain (ATCC 29213)): 2 µg/mL (≈ 1.38 µM)
- MIC (Staphylococcus aureus [3]; Staphylococcus aureus, MRSA, Staphylococcus aureus Micromyx # 1004, MRSA, FA^R): 1 µg/mL (≈ 0.69 µM)
- MIC (Staphylococcus aureus [3]; Staphylococcus aureus, MRSA, Staphylococcus aureus Micromyx # 1730, Community-acquired MRSA): 2 µg/mL (≈ 1.38 µM)
- MIC (Staphylococcus aureus [3]; Staphylococcus aureus, MSSA, Staphylococcus aureus Micromyx # 1002, MSSA, macrolide^R): 1 µg/mL (≈ 0.69 µM)
- MIC (Staphylococcus aureus [3]; Staphylococcus aureus, Staphylococcus aureus Micromyx # 106, RA^R): 1 µg/mL (≈ 0.69 µM)
- MIC (Staphylococcus aureus [3]; Staphylococcus aureus, Staphylococcus aureus Micromyx # 1016, FA^R): 1 µg/mL (≈ 0.69 µM)
- MIC (Staphylococcus aureus [3]; Staphylococcus aureus, Staphylococcus aureus Micromyx # 1651, LZD^R clinical isolate): 1 µg/mL (≈ 0.69 µM)
- MIC (Staphylococcus aureus [3]; Staphylococcus aureus, Staphylococcus aureus Micromyx # 1727, GM^R): 1 µg/mL (≈ 0.69 µM)
- MIC (Staphylococcus aureus [3]; Staphylococcus aureus, Staphylococcus aureus Micromyx # 1731, CHL^R): 1 µg/mL (≈ 0.69 µM)
- MIC (Staphylococcus aureus [3]; Staphylococcus aureus, VISA, Staphylococcus aureus Micromyx # 1723, VISA): 8 µg/mL (≈ 5.52 µM)
- MIC (Streptococcus pneumoniae; Streptococcus pneumoniae, Streptococcus pneumoniae Micromyx # 374, Wild type): 0.5 µg/mL (≈ 0.345 µM)
- MIC (Streptococcus pneumoniae; Streptococcus pneumoniae, Streptococcus pneumoniae Micromyx # 375, parC, gyrB): 0.5 µg/mL (≈ 0.345 µM)
- MIC (Streptococcus pneumoniae; Streptococcus pneumoniae, Streptococcus pneumoniae Micromyx # 376, parC, gyrA): 0.25 µg/mL (≈ 0.173 µM)
- MIC (Streptococcus pneumoniae; Streptococcus pneumoniae, Streptococcus pneumoniae Micromyx # 379, parC, gyrA, gyrB): 0.5 µg/mL (≈ 0.345 µM)
- MIC (Streptococcus pneumoniae; Streptococcus pneumoniae, Streptococcus pneumoniae Micromyx # 927, mef(A)): 0.5 µg/mL (≈ 0.345 µM)
- MIC (Streptococcus pneumoniae; Streptococcus pneumoniae, Streptococcus pneumoniae Micromyx # 928, erm(B)): 0.5 µg/mL (≈ 0.345 µM)
- MIC (Streptococcus pyogenes; Streptococcus pyogenes): 0.5 µg/mL (≈ 0.345 µM)
- MIC (Streptococcus pyogenes; [6]): 0.5 µg/mL (≈ 0.345 µM)
- MIC, CLSI Recommended Range (Enterococcus faecalis [4]): 1 to 4 µg/mL
- MIC, CLSI Recommended Range (Staphylococcus aureus [5]): 0.5 to 2 µg/mL

Compound: Empedopeptin
- MIC (Enterococcus faecalis [1]; Enterococcus faecalis Micromyx # 101, VSE, CLSI QC strain (ATCC 29212)): 4 µg/mL
- MIC (Enterococcus faecalis [1]; Enterococcus faecalis Micromyx # 413, LZD^R from res. dev. or other): 8 µg/mL
- MIC (Enterococcus faecalis [1]; Enterococcus faecalis Micromyx # 486, Van A): 8 µg/mL
- MIC (Enterococcus faecalis [1]; Enterococcus faecalis Micromyx # 1088, Van B): 16 µg/mL
- MIC ([2]; Staphylococcus epidermidis Micromyx # 108, MRSE): 8 µg/mL
- MIC ([2]; Staphylococcus epidermidis Micromyx # 835, MSSE): 8 µg/mL
- MIC (Enterococcus faecium; Enterococcus faecium Micromyx # 750, Van^S): 8 µg/mL
- MIC (Enterococcus faecium; Enterococcus faecium Micromyx # 752, Van A): 16 µg/mL
- MIC (Enterococcus faecium; Enterococcus faecium Micromyx # 1120, Van B): 16 µg/mL
- MIC (Enterococcus faecium; Enterococcus faecium Micromyx # 1721, DAP^R): 32 µg/mL
- MIC (Staphylococcus aureus [3]; Staphylococcus aureus Micromyx # 100, MSSA, CLSI QC strain (ATCC 29213)): 4 µg/mL
- MIC (Staphylococcus aureus [3]; Staphylococcus aureus Micromyx # 106, RA^R): 0.5 µg/mL
- MIC (Staphylococcus aureus [3]; Staphylococcus aureus Micromyx # 1002, MSSA, macrolide^R): 4 µg/mL
- MIC (Staphylococcus aureus [3]; Staphylococcus aureus Micromyx # 1004, MRSA, FA^R): 8 µg/mL
- MIC (Staphylococcus aureus [3]; Staphylococcus aureus Micromyx # 1016, FA^R): 8 µg/mL
- MIC (Staphylococcus aureus [3]; Staphylococcus aureus Micromyx # 1651, LZD^R clinical isolate): 4 µg/mL
- MIC (Staphylococcus aureus [3]; Staphylococcus aureus Micromyx # 1723, VISA): 4 µg/mL
- MIC (Staphylococcus aureus [3]; Staphylococcus aureus Micromyx # 1727, GM^R): 8 µg/mL
- MIC (Staphylococcus aureus [3]; Staphylococcus aureus Micromyx # 1730, Community-acquired MRSA): 4 µg/mL
- MIC (Staphylococcus aureus [3]; Staphylococcus aureus Micromyx # 1731, CHL^R): 4 µg/mL
- MIC (Streptococcus pneumoniae; Streptococcus pneumoniae Micromyx # 374, Wild type): 1 µg/mL
- MIC (Streptococcus pneumoniae; Streptococcus pneumoniae Micromyx # 375, parC, gyrB): 2 µg/mL
- MIC (Streptococcus pneumoniae; Streptococcus pneumoniae Micromyx # 376, parC, gyrA): 2 µg/mL
- MIC (Streptococcus pneumoniae; Streptococcus pneumoniae Micromyx # 379, parC, gyrA, gyrB): 2 µg/mL
- MIC (Streptococcus pneumoniae; Streptococcus pneumoniae Micromyx # 927, mef(A)): <0.12 µg/mL
- MIC (Streptococcus pneumoniae; Streptococcus pneumoniae Micromyx # 928, erm(B)): 0.5 µg/mL
- MIC range (Streptococcus pneumoniae; all strains of S. pneumoniae): ≦0.12-2 μg/mL
- MIC (Streptococcus pyogenes; [6]): ≦0.12 μg/mL
- MIC (Streptococcus pyogenes; Streptococcus pyogenes Micromyx # 985, Susceptible): ≦0.12 μg/mL
- MIC (Streptococcus pyogenes; both S. pyogenes test strains (including the macrolide-resistant strain)): ≤ 0.12 µg/mL
- range of MIC values (Enterococci; all strains tested): 4 to 32 µg/mL
- MIC, most strains inhibited (Enterococci; most strains): 8 to 16 µg/mL
- MIC values in the range (staphylococci; all strains tested): 0.5 to 8 µg/mL
- MIC, majority of strains inhibited (staphylococci; majority of strains): 4 to 8 µg/mL
